In patent publication US12324794B2, “Method to alleviate the symptoms of PMS” (priority 2016, dated 2025):

Tests used:
women with PMS / PMDD = assay: Case studies of women with PMS or PMDD symptoms (Examples 2-6); type: in vivo, human
Text: Below are some case studies and a human trial, both of which show significant improvement in symptoms. While acne can be measured by inspection, the other symptoms rely upon the internal feelings of the patient. To measure symptoms that deal with tender breasts, fatigue, difficulty concentrating, diminished impulse control, irritability, anxiety, tension, anger, depression, suicidal thoughts, feeling “out of control”, insomnia, cramping and rapid fluctuations in mood, one skilled in the art must rely on the interpretation of patient. This can be done through an interview with an expert, such as a medical doctor, or through validated survey forms that specifically address these symptoms. Examples of these forms that have been validated by independent clinical trial include: • Buss Perry Aggression Questionnaire (Anger) • Clinical Anger Scale (Anger) • Cohen-Perceived-Stress Scale (Anxiety) • Generalized-Anxiety-Scale (Anxiety) • Generalized Anxiety Disorder 7-item (GAD-7) scale (Anxiety) • Beck's Depression Inventory (Depression) • Center for Epidemiologic Studies Depression Scale (Depression) • Hospital Anxiety and Depression Scale (Anxiety and Depression) • Premenstrual Assessment Form (anger, depression, fatigue and anxiety) • Mood Calendar Tracking (anger, depression, fatigue and anxiety) A person experienced severe anger and depression one day a month, right before their period, every month. […] The cramping was not relieved by Midol or Aspirin. The person was despondent even after their symptoms of PMDD left because of guilt over their behavior during this time period. […] They reported that it was like a 1,000 pound weight being taken off their shoulders. The person in Example 3 continued to take oxaloacetate each month for the next three months and monitored their progress. They took one pill starting about 10 days before their period, and continued taking 1 pill daily until the first sign of PMS, when they increased the dosage to 2 capsules per day until the 2nd day of their period. […] They reported that “I am no longer a suicidal, psychotic crazy person every month. And I know it is the supplements because this will be the 3rd month with no PMDD and that is NOT a coincidence.” A person presented with severe PMDD ever since they were […]. They are now 26. Typically, the patient had to take-off from work 3 days out of each month, and self-seclude, because they could not be with people. […] The improvements with anhydrous enol-oxaloacetate have continued for over 2 years with this patient. A person presented with severe anxiety attacks and fatigue during the week before menstruation.

women with PMS [1] = assay: Randomized, double-blinded, placebo controlled cross-over trial for PMS emotional symptoms (Example 7); type: in vivo, human; settings: 200 mg oxaloacetate per day, approx. 28 days, 26 women
Method: A randomized, double blinded placebo-controlled crossover trial was conducted using 200 mg oxaloacetate per day as the active ingredient, and rice flour as the placebo ingredient. An Institutional Review Board (IRB) has approved the clinical plan, and patients have signed the human consent forms. Patients were located from across the United States. Consent forms and survey questionnaires were filled out on-line. The patients and the lead investigator were unaware of which product, Active or Placebo, the patients were receiving. Inclusion Criteria for the trial: • Able to give informed consent and follow instructions per the protocol • Female with history of mood swings, anxiety or depressed mood associated with PMS • Ages 21 to 50 at the start of the study • Not pregnant Exclusion Criteria for the trial: • A formal diagnosis of Major Depression • Previously taken Oxaloacetate as a supplement • Participation in other drug studies or use of other investigational products within 30 days prior to baseline • If unwilling to discontinue use of other nutritional supplements taken for the purpose of PMS modulation during the study • Any unstable or clinically significant condition that would impair the subject's ability to comply with study follow up. • […] of Premenstrual Dysphoric Disorder (PMDD) (a severe form of PMS). After signing the human consent forms, the patient took four different surveys to assess their current emotional state during PMS. • The Beck Depression Inventory modified to examine the week prior to the person's period (21 questions) • The Cohen Perceived Stress form, modified to examine the week prior to the person's period (10 questions). • The Generalized Anxiety Disorder 7-Item Scale modified to examine the week prior to the person's period (7 questions). • The Buss Perry Aggression questionnaire modified to examine the week prior to the person's period (29 questions). The time to fill out the composite 4-survey questionnaire is less than 30 minutes. The questionnaires are filled out on-line and made available to investigator team. […] After a “baseline” 4-survey questionnaire was completed by the women, they would be randomly sent either the Active oxaloacetate compound (200 mg oxaloacetate) or the Placebo (200 mg rice flour). The women would take a daily dose of the compound received, starting with their menstrual period, and continuing daily until the following menstrual period. At that following menstrual period, the women would again complete the 4-survey questionnaire. […] This is a “cross-over” type design. The women take the new product staring on a menstrual period, and continue taking it daily until a following menstrual period. The then again complete the 4-survey questionnaire. In this trial, each woman completed a baseline survey, and a survey after approximately 28 days for oxaloacetate, and a survey after approximately 28 days for rice flour. 26 women completed the study. Half of the women took oxaloacetate first, and the other half took a placebo first. […] P values were calculated using a student's T test, using a two-tailed distribution with paring of the data to the individual.

women with PMS [2] = assay: Suicidal Ideation item of Beck's Depression Inventory, Clinical Trials 1 and 2 compiled (Example 9); type: in vivo, human; settings: 31 women with baseline score above 0, both trials compiled
Text: In the clinical trials within Examples 7 and 8, the Beck's Depression Inventory was used. One portion of the Beck's Depression Inventory specifically deals with “Suicidal Ideation” (thoughts about committing suicide). The survey scores the relative severity of suicidal ideation via numerical scoring as follows: • Score Value • 0 I don't have any thoughts of killing myself. • 1 I have thoughts of killing myself, but I would not carry them out. • 2 I would like to kill myself. • 3 I would kill myself if I had the chance. The results of Clinical Trial 1 and 2 were compiled to examine the Suicidal Ideation of the women who participated in this clinical trial. Out of the 45 women in both trials, 31 women experienced a score above 0 in the baseline survey. No women in the completed study who scored 0 in the baseline study increased their suicidal ideation score. In order to examine suicidal ideation statistically, women with a 0 score on their baseline survey were removed from the analysis. P values were calculated using a student's T test, using a two-tailed distribution with paring of the data to the individual.

women with PMS [3] = assay: Single-blinded, placebo controlled cross-over trial for PMS emotional symptoms (Example 8); type: in vivo, human; parameters: concentration or dose not given beside the values; settings: placebo first, oxaloacetate second, 19 women
Text: The clinical trial of Example 7 was repeated with 19 women, except that the trial was single blinded. The placebo was sent to all women first, and the oxaloacetate active second. […] This should not have come as a complete surprise to us, as oxaloacetate exerts a beneficial effect on gene expression (movement towards the calorie restriction metabolic state) that can have positive effects for several weeks after discontinuation of the product. To better measure the oxaloacetate effect, therefore, oxaloacetate was given second in this trial. P values were calculated using a student's T test, using a two-tailed distribution with paring of the data to the individual.

[4] = in vivo
Text: The dose ratio between toxic and therapeutic effects is the therapeutic index and it can be expressed as the ratio LD50/ED50.

[5] = Stability / decarboxylation; type: physicochemical
Text: The enol and keto form of oxaloacetic acid are tautomers, and in water form a chemical equilibrium. […] The keto-oxaloacetate decarboxylates quickly to pyruvate. As the keto-oxaloacetate form disappears due to decarboxylation, the enol and hydrated form convert to keto-oxaloacetate, and then also decarboxylate into carbon dioxide and pyruvate, until all the oxaloacetate is consumed. Note that neither of the byproducts of oxaloacetate decarboxylation, carbon dioxide and pyruvate, are effective in treating the symptoms of PMS and PMDD. If there are divalent cations in the fluid, which is very common, the decarboxylation of oxaloacetic acid can happen within a day. […] (See Cash, U.S. Pat. No. 9,050,306). […] Water catalyzes the equilibrium reaction between enol- and keto oxaloacetic acid. Note that only the keto form of oxaloacetic acid decarboxylates into pyruvate and carbon dioxide spontaneously, not the enol-form. There is an energy gap between the enol and keto form which is bridged when the compounds are exposed to water, however, this same energy gap prevents the conversion of the enol to keto form when the product is kept dry. Once there is a conversion to the keto form, decarboxylation can spontaneously occur at temperatures above the freezing point of water. […] Drying effectiveness can be increased by increasing the drying time, drying under vacuum, by using anhydrous washes of isopropyl alcohol or ethyl alcohol to absorb the remaining water (and then evaporating the alcohol), or by performing multiple washes with hexane or non-water soluble solvent to physically remove the water, typically after an alcohol wash. The non-water soluble solvent would then be evaporated off. […] Hexane is a residual solvent in many commercial food preparations including decaffeinated coffee, and is not toxic in small quantities. Alternatively, the final wash can be performed with liquefied propane, liquefied butane, ethyl acetate, ethane, carbon dioxide, or nitrous oxide to reduce the water content.

[6] = Forms of oxaloacetic acid in water; type: physicochemical; settings: pH 6.9
Method: In some embodiments, the present invention provides methods for treating symptoms of PMS and methods for treating symptoms of PMS and PMDD comprising administration of compositions comprising oxaloacetate. Oxaloacetic acid, when dissolved in water, ionizes to oxaloacetate. The oxaloacetate can be in three forms depending on the pH of the solution. At low pH (<1.5) and low temperature (<4° C.) oxaloacetate hydrates. […] Outside of water solutions, the solid form of oxaloacetic acid is primarily in the enol form. All forms of oxaloacetic acid and the ion oxaloacetate are absorbed by the body. The hydrated form is mostly converted once it enters the higher pH of the body outside of the intestinal tract to the keto and enol form. […] Enol-oxaloacetate is converted to keto-oxaloacetate with the enzyme enol-keto tautomerase, a ubiquitous enzyme throughout the human body. The enol and keto form of oxaloacetic acid are tautomers, and in water form a chemical equilibrium. […] The keto-oxaloacetate decarboxylates quickly to pyruvate. As the keto-oxaloacetate form disappears due to decarboxylation, the enol and hydrated form convert to keto-oxaloacetate, and then also decarboxylate into carbon dioxide and pyruvate, until all the oxaloacetate is consumed. Note that neither of the byproducts of oxaloacetate decarboxylation, carbon dioxide and pyruvate, are effective in treating the symptoms of PMS and PMDD. If there are divalent cations in the fluid, which is very common, the decarboxylation of oxaloacetic acid can happen within a day.

SMILES: CC(=O)Oc1ccccc1C(=O)O [Aspirin, reference compound]
- relief of extreme cramping (pain level 10) (women with PMS / PMDD; person with PMDD, history (Example 3)): not relieved

SMILES: O=C(O)CC(=O)C(=O)O [Oxaloacetate]
- Beck's Depression Inventory, reduction from Placebo (women with PMS [1]): 25.57%
- Beck's Depression Inventory, reduction from baseline (women with PMS [1]): 50.88%
- Buss-Perry Aggression Scale, reduction from Placebo (women with PMS [1]): 9.22%
- Buss-Perry Aggression Scale, reduction from baseline (women with PMS [1]): 15.10%
- Cohen Perceived Stress, reduction from Placebo (women with PMS [1]): 16.51%
- Cohen Perceived Stress, reduction from baseline (women with PMS [1]): 34.35%
- Generalized Anxiety Disorder, reduction from Placebo (women with PMS [1]): 28.08%
- Generalized Anxiety Disorder, reduction from baseline (women with PMS [1]): 49.73%
- Suicidal Ideation, reduction from Baseline (women with PMS [2]): 47.90%
- Beck's Depression Inventory, reduction from Placebo (women with PMS [3]): 37.12%
- Beck's Depression Inventory, reduction from baseline (women with PMS [3]): 54.42%
- Buss-Perry Aggression Scale, reduction from Placebo (women with PMS [3]): 14.06%
- Buss-Perry Aggression Scale, reduction from baseline (women with PMS [3]): 17.81%
- Cohen Perceived Stress, reduction from Placebo (women with PMS [3]): 24.40%
- Cohen Perceived Stress, reduction from baseline (women with PMS [3]): 36.67%
- Generalized Anxiety Disorder, reduction from Placebo (women with PMS [3]): 38.02%
- Generalized Anxiety Disorder, reduction from baseline (women with PMS [3]): 54.23%
- LD50 [4]: above 5 g/kg of body weight

SMILES: O=C(O)CC(=O)C(=O)O [anhydrous enol-oxaloacetate, anhydrous enol-oxaloacetic acid]
- fatigue during the week before menstruation (women with PMS / PMDD; person, two 100 mg lozenges under the tongue (Example 6)): greatly reduced
- time until panic attack subsided (women with PMS / PMDD; person, two 100 mg lozenges under the tongue for 5 minutes (Example 6)): less than 5 minutes
- severe premenstrual anger and depression (women with PMS / PMDD; person, two capsules of 100 mg on that day (Example 2)): reduced in intensity to the point where they could manage the symptoms easily
- stability at room temperature ([5]; room temperature, kept dry): exceeding one year

SMILES: O=C(O)CC(=O)C(=O)O [oxaloacetic acid]
- share in the enol form [6]: 11%
- share in the hydrated form [6]: 5%
- share in the keto form [6]: 84%
- time to decarboxylation in fluid ([5]; divalent cations in the fluid): within a day
- stability of the hydrated form ([5]; very low pH, temperatures not exceeding 8° C.): less than one week
